SMILES strings stand for the structures.

Experiment [1] has as its system osteoclast formation in mouse marrow cultures. Nature of the experiment: TRAP staining of mouse marrow cultures treated with bis-enoxacin. Format: cell-based. The arrangement: unit of the concentration uncertain. Conditions: 1 (unit uncertain)0 mM; 6 Days; TRAP positive cells. The method, then:
Mouse marrow cultures were treated with bis-enoxacin at the concentrations of 5 mM, 10 mM, 25 mM, 50 mM, and 100 mM respectively, for 6 Days in wells of a 24-well plate. The cells were fixed and stained for tartrate-resistant acid phosphatase (TRAP) activity which is a marker for osteoclasts. The number of TRAP positive mononuclear, multinuclear (2-10 nuclei) and giant (>10 nuclei) were counted.

In another experiment the test system is mouse marrow osteoclasts. Kind of experiment: actin ring count on bone slices pre-treated with bis-enoxacin. Particulars: bone slices pre-treated at 10 mM and 1 mM; 3 Days of culture. Format: cell-based. Here is the method: Bone slices were incubated with bis-enoxacin at the concentrations of 10 mM and 1 mM respectively. After a 1 Day incubation, the slices were washed 4 times over a period of 24H. Mouse marrow osteoclasts were then plated on the slices, and after 3 Days of culture the cells were fixed and the number of actin rings (a marker for active osteoclasts) was counted.

Experiment [2] concerns mouse marrow osteoclasts on bone slices. Kind of experiment: bone resorption pitting quantified by scanning electron microscopy. The format is cell-based. More on the design: dose or concentration left out as unconfirmed. Particulars: 5 Days. Here is the method: Mouse marrow osteoclasts were grown to maturity for 5 Days then scraped and plated on bone slices treated with bis-enoxacin at the concentrations of 30 mM, 10 mM and 1 mM respectively. After 5 Days, the cells were removed and pitting was quantified by scanning electron microscopy.

Experiment [3] concerns mature osteoclasts on bone slices. Nature of the experiment: ruffled membrane formation / V-ATPase trafficking in mature osteoclasts on bone slices (anti-E subunit antibody). Format: cell-based. Here is the method: FIG. 7 depicts that enoxacin (10 μM) blocks ruffled membrane formation. Mature osteoclasts on bone slices were treated with enoxacin or vehicle control for 3 days, then fixed and labeled with an anti-E subunit antibody. […] Arrows point to representative osteoclasts; The present inventors also tested the effects of enoxacin on osteoclasts that were already mature and loaded onto bone slices. In this experiment, mature osteoclasts on bone slices were treated with enoxacin or vehicle control for 3 days, then fixed and labeled with an anti-E subunit antibody. Control osteoclasts produced many ruffled membranes.

The test system of experiment [4] is ovariectomized (OVX) rats. Kind of experiment: ovariectomized (OVX) rat model. Format: in vivo. Conditions: oral daily, 6 weeks. Here is the method:
Enoxacin is tested in ovariectomized (OVX) rats that lose bone in a manner similar to that of postmenopausal women. This model has been widely and successfully utilized as an early pre-clinical model for osteoporotic disease (Pun, S., et al. Bone, 2000, 27:197-202; Wronski, T. J., et al. Endocrinology, 1993, 132:823-831; Wronski, T. J., et al. Endocrinology, 1988, 123:681-686; Iwaniec, U. T., et al. Endocrinology, 2002, 143:2515-2526). In this study, the effects of systemic administration of enoxacin are examined.
In this study, ligands identified that block V-ATPase/F-actin interactions and bone resorption in vitro are advanced to in vivo testing in OVX rats. Female Sprague Dawley rats are subjected to sham surgery or ovariectomized at 3 months of age (see the preceding references). On the day after surgery, groups of sham operated control and OVX rats are injected subcutaneously (SC) with vehicle or treated with vehicle via oral gavage. A second group of OVX rats are injected SC 3 days/week with 17β-estradiol (Sigma, St. Louis, Mo.) at a dose of 10 μg/kg to inhibit bone resorption and prevent cancellous bone loss. The animals are treated orally with daily doses of enoxacin including 10, 100 and 400 mg/kg body weight. Each group consist of 10 rats. […] Due to the potential for enoxacin to affect intestinal flora, rats are weighed weekly and closely monitored for weight loss and diarrhea. […]

The test system of experiment [5] is osteoclast formation in calcitriol-stimulated mouse marrow cultures. Kind of experiment: osteoclastogenesis stimulated by calcitriol in mouse marrow cultures. Format: cell-based. The method, then:
Enoxacin and Binhib 2 were then tested for their effects on osteoclastogenesis stimulated by calcitriol in mouse marrow cultures. The mixed cultures represent a model for the complex interactions that regulate bone resorption in vivo. […] Osteoclast and osteoblast-containing mouse bone marrow cultures are obtained as above described. 4-6-week-old Swiss-Webster mice (Harlan, Indianapolis, Ind.) are sacrificed by cervical dislocation. Femurs and tibias are dissected free of adherent tissue; the marrow is expelled by cutting both bone ends and flushing the marrow cavity with MEM D10 using a 25-gauge needle. The marrow cells are washed twice and plated in 6 well plates at a concentration of 1×10^6 nucleated cells/cm^2 in MEM D1 0 containing 10 nM calcitriol. Cultures are fed on the third and fifth day of culture by replacing half of the medium with fresh medium containing calcitriol. Cultures are treated with enoxacin at 10 μM or vehicle control on Day 1, and when the media is refreshed.

The target in experiment [6] is T1, interaction between recombinantly-expressed B2 subunit and pure rabbit muscle F-actin (Homo sapiens, UniProt P21281).
T1 construct: made in house
Nature of the experiment: pelleting assay of B subunit binding to F-actin. Conditions: 100 uM inhibitor compound; recombinant B subunit 1 μM, F-actin 2 μM; densitometry of SDS-PAGE gels; read-out: % inhibition. Here is the method:
Twenty-one small molecules are tested for their ability to block interaction between recombinantly-expressed B2 subunit and pure rabbit muscle F-actin.
Recombinant B subunit (1 μM) plus/minus F-actin (2 μM)) plus/minus 100 uM inhibitor compounds were incubated for 10 minutes in 20 mM Tris/HCl (pH 7.5), 100 mM NaCl, 1 mM MgCl2, 0.2 mM CaCl2, 0.5 mM ATP, 0.2 mM DTT, then subjected to ultracentrifugation at 180,000×g for 45 min. Supernatants and pellets were collected in SDS-PAGE sample buffer, separated by SDS-PAGE, stained with Coomassie Blue, and densitometry was performed using a Flurchem 8000 (Alpha Innotech, San Leandro Calif.).
The percent inhibition was determined by densitometry of SDS-PAGE gels. The raw densitometric number obtained of the recombinant B subunit band that was pelleted with F-actin, but with no compound present, represented 0% inhibition. The amount of the raw densitometric number of the amount of recombinant B subunit that pelleted with no actin present, but with compound, represented 100% inhibition. The amount of recombinant B subunit that pelleted with actin and the compound being tested was placed as a percentage assuming a linear response.

The subject of a further experiment is GW bodies. Nature of the experiment: GW body formation. The format is cell-based, mouse. Here is the method:
GW bodies: GW bodies have been reported to be correlated with miRNA activity (Pauley, K. M., et al. EMBO Rep. 2006, 7:904-910; Lian, S., et al. Cell Cycle 2006, 5:242-245). Enoxacin, an enhancer of miRNA activity, is predicted to increase the number of GW bodies present and/or increase the size of GW bodies. To test whether enoxacin affects GW body formation, calcitriol-stimulated mouse marrow cultures, RANKL-stimulated primary hematopoietic cells and primary calvarial osteoblasts are treated with enoxacin. A dose response curve using doses above and below the IC50 dose is performed for inhibition of osteoclast formation and bone resorption. Osteoclast formation, staining and enumerating TRAP+ cells, and ruffled membrane formation are examined, by treating preformed osteoclasts on bone slices. Cells are fixed at various time points after treatment with enoxacin, and stain with polyclonal antibody against GW bodies and monoclonal anti-DCP1. The number of GW bodies in at least 100 randomly sampled cells is counted. The number of GW bodies is divided by the number of nuclei/cell, as determined by counting DAPI stained nuclei. This experiment is repeated in triplicate. Counts are performed by pre-calibrated assistants who are blinded to the nature of the experiment. Images are taken using a Zeiss Axiovert 200 M microscope and a Zeiss AxioCam MRm camera using the 40×0.75 NA objective.

The target of experiment [7] is T2, V-ATPase interaction with microfilaments (F-actin) (Mus musculus, UniProt P62814).
T2 construct: endogenous in cells; host or cells: primary mouse marrow osteoclasts (RANKL-differentiated)
Kind of experiment: immunoprecipitation of V-ATPase from soluble osteoclast extracts. Particulars: control extracts treated after homogenization, prior to immunoprecipitation. The method, then:
Immunoprecipitations: To further test whether enoxacin disrupts the capacity of V-ATPase to interact with microfilaments, immunoprecipitations are performed from soluble extracts of osteoclasts that had been treated with enoxacin or vehicle control using anti-E subunit and anti-a3 subunit antibodies developed by the present inventors (Zuo, J., et al. J. Bone Miner. Res. 2006, 21:714-721; Lee, B. S., et al. J. Bone Miner. Res., 1999, 14:2127-2136). It is expected that treatments of control extracts with enoxacin after cells are homogenized, but prior to immunoprecipitation, reduces the amount of F-actin attached to the immunoprecipitated V-ATPase.

A further experiment deals with osteoblast formation. Nature of the experiment: osteoblast formation in mouse marrow cultures, judged by alkaline phosphatase expressing cells. The format is cell-based. Conditions: 1-10 μM. Here is the method: Enoxacin and Binhib 2 were then tested for their effects on osteoclastogenesis stimulated by calcitriol in mouse marrow cultures. The mixed cultures represent a model for the complex interactions that regulate bone resorption in vivo.
In addition, at 1-10 μM enoxacin, osteoclast formation was inhibited while osteoblast formation, judged by alkaline phosphatase expressing cells, was not affected. And, at level of 100 μM, enoxacin blocked 90% of the B subunit from binding F-actin.

T2 sequence (P62814 whole entry): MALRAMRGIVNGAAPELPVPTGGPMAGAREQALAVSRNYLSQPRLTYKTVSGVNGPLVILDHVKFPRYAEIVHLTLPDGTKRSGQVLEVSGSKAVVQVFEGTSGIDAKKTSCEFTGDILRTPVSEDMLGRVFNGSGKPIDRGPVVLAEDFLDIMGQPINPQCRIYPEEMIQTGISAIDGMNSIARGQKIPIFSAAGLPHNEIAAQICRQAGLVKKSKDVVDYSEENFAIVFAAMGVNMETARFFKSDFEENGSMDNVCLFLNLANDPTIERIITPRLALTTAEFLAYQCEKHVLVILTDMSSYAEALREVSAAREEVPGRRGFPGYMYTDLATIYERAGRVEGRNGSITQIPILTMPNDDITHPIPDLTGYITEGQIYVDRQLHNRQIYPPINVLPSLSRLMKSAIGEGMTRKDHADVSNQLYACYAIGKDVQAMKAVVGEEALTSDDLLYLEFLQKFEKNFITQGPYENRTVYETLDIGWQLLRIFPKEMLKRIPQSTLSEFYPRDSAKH
T1 sequence (P21281 whole entry): as the sequence (P62814 whole entry) above, with M25A, A26V, K460R, T464A, Y474F counted along it

Regarding `CCn1cc(C(=O)O)c(=O)c2cc(F)c(N3CCN(CC(P(=O)(O)O)P(=O)(O)O)CC3)nc21` [bis-enoxacin, 7-(4-(2,2-Diphosphonoethyl)piperazin-1-yl)-1-ethyl-6-fluoro-4-oxo-1,4-dihydro-1,8-naphthyridine-3-carboxylic acid], the “effects on osteoclast formation compared with enoxacin” value in [1] is reported as “identical effects”. Further, the “reduction of actin ring numbers” value in the experiment on mouse marrow osteoclasts is “approximately 60%”. In [2], the “bone resorption compared to control” value is reported as “reduced”.

One may read the IC50 as the concentration that gives 50% inhibition. By inhibition is commonly meant the drop in the measured response relative to a control, in per cent. Consider `CCn1cc(C(=O)O)c(=O)c2cc(F)c(N3CCNCC3)nc21` [enoxacin, 1-ethyl-6-fluoro-4-oxo-7-(piperazin-1-yl)-1,4-dihydro-1,8-naphthyridine-3-carboxylic acid], for which the “V-ATPase trafficking to ruffled membranes in mature osteoclasts” value in experiment [3] (10 μM) is recorded as “completely inhibited”. The ruffled membrane formation entry in experiment [3] (10 μM, 3 days) is recorded as “blocks”; in [3] (concentration not given), “disrupted”. Moreover, the “E subunit labeling distribution” value in experiment [3] (mature osteoclasts on bone slices, 3 days) is “perinuclear distribution”. Moreover, the “ruffled membranes of osteoclasts along the bone surface” value in experiment [4] is “does not have ruffled membranes”. Besides, the formation of osteoclasts entry in [5] (1 μM) was “significantly reduced”. Also, the osteoclast formation entry in experiment [5] (1-10 μM) is “inhibited”; in experiment [5] (concentration not given), “inhibits”; in [5] (single dose at the onset of the marrow culture period, end of 7 Days), “dramatic reductions”. Also, the IC50 in experiment [5] (Osteoclast, calcitriol-stimulated mouse marrow cultures) was 1000 nM. Further, in experiment [6], the inhibition at 100 µM was 92%. Moreover, the “number and/or size of GW bodies” value in the experiment with GW bodies is on record as “increase”. For the same compound, the “amount of F-actin attached to the immunoprecipitated V-ATPase” value in experiment [7] is “reduces”. In the experiment on osteoblast formation, the “osteoblast formation, judged by alkaline phosphatase expressing cells” value was “not affected”.
